# Assays:
# [1] = AUC (0 to infinity) in NMRI mouse at 1 mg/kg, sc; conditions: plasma
# [2] = target: Trypsin (Homo sapiens, UniProt P07477+P07478+P35030); assay: Inhibition of human pancreas Trypsin using Boc-Gln-Ala-Arg-7-amido-4-methyl coumarin hydrobromide; assay type: protein assay
# [3] = target: T1, Suppressor of tumorigenicity 14 protein (Homo sapiens, UniProt Q9Y5Y6); assay: Inhibition of recombinant matriptase (unknown origin) using Boc-Gln-Ala-Arg-7-amido-4-methyl coumarin hydrobromide
# T1 sequence (Q9Y5Y6 whole entry): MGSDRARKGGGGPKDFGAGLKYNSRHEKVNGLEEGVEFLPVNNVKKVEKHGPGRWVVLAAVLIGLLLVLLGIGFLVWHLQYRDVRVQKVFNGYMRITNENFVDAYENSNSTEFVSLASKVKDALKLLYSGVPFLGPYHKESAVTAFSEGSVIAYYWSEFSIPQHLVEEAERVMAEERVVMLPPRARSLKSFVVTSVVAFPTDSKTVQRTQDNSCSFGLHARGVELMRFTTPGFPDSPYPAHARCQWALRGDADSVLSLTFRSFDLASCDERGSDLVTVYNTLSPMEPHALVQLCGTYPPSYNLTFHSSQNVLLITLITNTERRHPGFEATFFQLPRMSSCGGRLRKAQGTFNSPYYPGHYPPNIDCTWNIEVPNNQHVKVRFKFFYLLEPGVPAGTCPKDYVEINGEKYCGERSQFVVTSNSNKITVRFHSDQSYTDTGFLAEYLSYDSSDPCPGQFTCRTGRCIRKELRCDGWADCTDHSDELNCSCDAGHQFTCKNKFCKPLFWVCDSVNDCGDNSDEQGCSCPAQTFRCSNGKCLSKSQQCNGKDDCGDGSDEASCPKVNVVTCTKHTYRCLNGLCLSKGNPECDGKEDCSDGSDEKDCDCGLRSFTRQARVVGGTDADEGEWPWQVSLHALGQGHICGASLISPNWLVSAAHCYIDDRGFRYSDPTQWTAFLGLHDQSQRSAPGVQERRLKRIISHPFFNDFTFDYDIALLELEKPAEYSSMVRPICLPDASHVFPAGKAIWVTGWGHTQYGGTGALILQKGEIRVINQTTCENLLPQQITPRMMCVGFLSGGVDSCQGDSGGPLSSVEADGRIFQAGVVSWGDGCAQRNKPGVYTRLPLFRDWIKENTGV
# [4] = Tmax in NMRI mouse at 1 mg/kg, sc; conditions: in vivo
# [5] = target: Cytochrome P450 2C9 (Homo sapiens, UniProt P11712); assay: Inhibition of CYP2C9 (unknown origin); assay type: ADME
# Chain of Cytochrome P450 2C9 (P11712 whole entry): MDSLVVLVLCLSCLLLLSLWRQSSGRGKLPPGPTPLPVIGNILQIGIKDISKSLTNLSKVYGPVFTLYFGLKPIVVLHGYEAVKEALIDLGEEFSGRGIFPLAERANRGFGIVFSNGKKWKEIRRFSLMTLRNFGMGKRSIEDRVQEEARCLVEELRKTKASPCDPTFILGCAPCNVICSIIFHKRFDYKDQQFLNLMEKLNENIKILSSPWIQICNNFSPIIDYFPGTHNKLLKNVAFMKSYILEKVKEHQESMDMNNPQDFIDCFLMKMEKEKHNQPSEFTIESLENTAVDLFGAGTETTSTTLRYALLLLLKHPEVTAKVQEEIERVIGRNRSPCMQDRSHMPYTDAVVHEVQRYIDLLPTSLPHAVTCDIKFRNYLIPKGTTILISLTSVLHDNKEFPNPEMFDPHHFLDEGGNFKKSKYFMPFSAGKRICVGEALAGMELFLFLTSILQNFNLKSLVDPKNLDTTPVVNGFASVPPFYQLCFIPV
# [6] = test system: PC-3; assay: Cytotoxicity against human PC3 cells assessed as cell survival at 10 uM after 72 hrs by calcein AM assay; assay type: functional; conditions: PC-3, 72 h, read-out: Activity
# [7] = Antiinvasion activity in human LNCaP-C42B4 cells assessed as inhibition of FBS-induced cell invaded to lower surface at 10 uM for 3 days by matrigel assay; assay type: functional; conditions: LNCaP-C42B4, 72 h
# [8] = test system: Mus musculus; assay: Toxicity in SCID mouse xenografted with human DU145 cells assessed as clinical signs at 1 mg/kg, sc administered twice daily for 31 days; conditions: in vivo, 744 h
# [9] = target: Cytochrome P450 3A4 (Homo sapiens, UniProt P08684); assay: Inhibition of CYP3A4 (unknown origin); assay type: ADME
# Chain of Cytochrome P450 3A4 (P08684 whole entry): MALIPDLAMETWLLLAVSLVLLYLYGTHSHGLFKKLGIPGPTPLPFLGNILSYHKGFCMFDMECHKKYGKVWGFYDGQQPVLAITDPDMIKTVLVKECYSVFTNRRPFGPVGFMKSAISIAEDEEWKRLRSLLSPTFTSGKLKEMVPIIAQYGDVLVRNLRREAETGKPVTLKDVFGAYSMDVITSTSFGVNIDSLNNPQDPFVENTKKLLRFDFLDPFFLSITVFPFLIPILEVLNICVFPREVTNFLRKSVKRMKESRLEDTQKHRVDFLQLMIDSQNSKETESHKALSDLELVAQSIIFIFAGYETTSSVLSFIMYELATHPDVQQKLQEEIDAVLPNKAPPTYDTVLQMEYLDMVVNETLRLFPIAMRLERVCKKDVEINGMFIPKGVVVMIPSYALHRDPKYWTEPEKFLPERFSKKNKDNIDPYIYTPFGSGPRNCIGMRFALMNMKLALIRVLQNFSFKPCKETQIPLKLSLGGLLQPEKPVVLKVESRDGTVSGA
# [10] = Metabolic stability in mouse liver microsomes assessed as compound remaining after 20 mins; assay type: ADME; conditions: read-out: Stability
# [11] = Aqueous solubility of the compound; assay type: physicochemical; conditions: buffer
# [12] = test system: DU-145; assay: Antiinvasion activity in human DU145 cells assessed as inhibition of FBS-induced cell invaded to lower surface at 10 uM for 3 days by matrigel assay; assay type: functional; conditions: DU-145, 72 h
# [13] = Metabolic stability in human liver microsomes assessed as compound remaining after 20 mins; assay type: ADME; conditions: read-out: Stability
# [14] = target: Cytochrome P450 2D6 (Homo sapiens, UniProt P10635); assay: Inhibition of CYP2D6 (unknown origin); assay type: ADME
# Chain of Cytochrome P450 2D6 (P10635 whole entry): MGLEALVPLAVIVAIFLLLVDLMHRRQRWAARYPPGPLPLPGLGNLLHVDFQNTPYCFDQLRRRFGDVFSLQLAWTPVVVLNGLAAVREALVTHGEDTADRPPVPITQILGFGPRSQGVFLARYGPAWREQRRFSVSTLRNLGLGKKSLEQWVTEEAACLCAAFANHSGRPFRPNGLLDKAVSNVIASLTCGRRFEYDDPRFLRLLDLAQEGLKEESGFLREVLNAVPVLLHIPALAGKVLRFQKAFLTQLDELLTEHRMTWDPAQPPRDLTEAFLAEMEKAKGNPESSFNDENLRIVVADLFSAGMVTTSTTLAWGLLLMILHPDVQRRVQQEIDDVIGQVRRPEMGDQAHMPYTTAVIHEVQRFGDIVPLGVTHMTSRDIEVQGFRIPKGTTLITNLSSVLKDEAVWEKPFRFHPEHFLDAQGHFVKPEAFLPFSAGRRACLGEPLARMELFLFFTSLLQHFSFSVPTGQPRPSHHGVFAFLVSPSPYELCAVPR
# [15] = Cytotoxicity against human LNCaP-C42B4 cells assessed as cell survival at 10 uM after 72 hrs by calcein AM assay; assay type: functional; conditions: LNCaP-C42B4, 72 h, read-out: Activity
# [16] = Terminal half life in NMRI mouse at 1 mg/kg, sc; conditions: in vivo, read-out: beta t1/2 (converted)
# [17] = test system: DU-145; assay: Cytotoxicity against human DU145 cells assessed as cell survival at 10 uM after 72 hrs by calcein AM assay; assay type: functional; conditions: DU-145, 72 h, read-out: Activity
# [18] = target: Coagulation factor X (Bos taurus, UniProt P00743); assay: Inhibition of bovine plasma factor 10a using CH3OCO-D-CHA-Gly-Arg-pNA.AcoH substrate
# Chain of Coagulation factor X (P00743 41-180 limits assumed): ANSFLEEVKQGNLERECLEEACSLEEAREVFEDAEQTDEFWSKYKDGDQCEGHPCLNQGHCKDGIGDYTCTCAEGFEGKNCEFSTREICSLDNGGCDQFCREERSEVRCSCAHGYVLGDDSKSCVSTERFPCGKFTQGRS
# Chain of Coagulation factor X (P00743 234-492 limits assumed): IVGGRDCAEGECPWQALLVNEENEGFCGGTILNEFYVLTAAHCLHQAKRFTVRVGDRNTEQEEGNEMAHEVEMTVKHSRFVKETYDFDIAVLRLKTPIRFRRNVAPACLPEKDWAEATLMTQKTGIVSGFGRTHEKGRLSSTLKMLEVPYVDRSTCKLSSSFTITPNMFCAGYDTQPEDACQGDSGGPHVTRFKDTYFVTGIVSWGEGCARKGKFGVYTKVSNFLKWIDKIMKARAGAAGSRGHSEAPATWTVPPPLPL
# [19] = test system: PC-3; assay: Antiinvasion activity in human PC3 cells assessed as inhibition of FBS-induced cell invaded to lower surface at 10 uM for 3 days by matrigel assay; assay type: functional; conditions: PC-3, 72 h
# [20] = test system: DU-145; assay: Cytotoxicity against human DU145 cells assessed as inhibition of number of colonies formed in soft agar measured on day 8; assay type: functional, cell-based; conditions: DU-145, 192 h
# [21] = test system: PC-3; assay: Cytotoxicity against human PC3 cells assessed as inhibition of number of colonies formed in soft agar measured on day 8; assay type: functional, cell-based; conditions: PC-3, 192 h
# [22] = Metabolic stability in rat liver microsomes assessed as compound remaining after 20 mins; assay type: ADME; conditions: read-out: Stability
# [23] = Cytotoxicity against human LNCaP-C42B4 cells assessed as inhibition of number of colonies formed in soft agar measured on day 8; assay type: functional, cell-based; conditions: LNCaP-C42B4, 192 h
# [24] = test system: Mus musculus; assay: Toxicity in SCID mouse xenografted with human DU145 cells assessed as body weight change at 1 mg/kg, sc administered twice daily for 31 days; conditions: in vivo, 744 h
# [25] = Cmax in NMRI mouse at 1 mg/kg, sc; conditions: in vivo
# [26] = target: Cytochrome P450 2C19 (Homo sapiens, UniProt P33261); assay: Inhibition of CYP2C19 (unknown origin); assay type: ADME
# Chain of Cytochrome P450 2C19 (P33261 whole entry): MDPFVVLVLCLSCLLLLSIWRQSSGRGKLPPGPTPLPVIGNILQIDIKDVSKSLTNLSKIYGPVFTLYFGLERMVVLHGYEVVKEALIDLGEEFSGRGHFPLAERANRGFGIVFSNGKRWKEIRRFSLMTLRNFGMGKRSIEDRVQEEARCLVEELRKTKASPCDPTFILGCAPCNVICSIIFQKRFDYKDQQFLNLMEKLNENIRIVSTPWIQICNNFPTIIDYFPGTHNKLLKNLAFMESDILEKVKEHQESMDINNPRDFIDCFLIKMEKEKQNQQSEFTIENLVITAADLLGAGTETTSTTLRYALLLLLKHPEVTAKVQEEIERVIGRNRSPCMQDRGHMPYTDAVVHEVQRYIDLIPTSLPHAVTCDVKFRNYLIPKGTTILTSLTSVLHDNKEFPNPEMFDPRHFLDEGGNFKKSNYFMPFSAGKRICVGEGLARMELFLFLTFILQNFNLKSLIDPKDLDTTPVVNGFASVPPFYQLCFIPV
# [27] = target: Prothrombin (Homo sapiens, UniProt P00734); assay: Inhibition of human thrombin using Boc-Gln-Ala-Arg-7-amido-4-methyl coumarin hydrobromide
# [28] = target: Plasminogen (Homo sapiens, UniProt P00747); assay: Inhibition of human plasmin using pyroGlu-Phe-Lys-pNA.HCl
# Chain of Plasminogen (P00747 97-580 limits assumed): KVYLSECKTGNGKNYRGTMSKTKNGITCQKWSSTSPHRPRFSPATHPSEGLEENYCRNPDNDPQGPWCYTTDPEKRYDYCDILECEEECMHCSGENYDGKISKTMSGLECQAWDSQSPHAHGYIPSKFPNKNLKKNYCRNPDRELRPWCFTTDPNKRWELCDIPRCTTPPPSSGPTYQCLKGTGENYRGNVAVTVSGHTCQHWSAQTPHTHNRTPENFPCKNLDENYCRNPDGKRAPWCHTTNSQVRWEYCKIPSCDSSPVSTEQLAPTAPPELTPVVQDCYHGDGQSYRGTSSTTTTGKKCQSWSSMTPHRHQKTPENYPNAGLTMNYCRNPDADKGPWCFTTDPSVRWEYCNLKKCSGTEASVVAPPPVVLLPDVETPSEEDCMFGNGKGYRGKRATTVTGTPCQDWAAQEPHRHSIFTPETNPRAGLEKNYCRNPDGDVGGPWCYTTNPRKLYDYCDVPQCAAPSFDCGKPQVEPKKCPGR
# Chain of Plasminogen (P00747 581-810 limits assumed): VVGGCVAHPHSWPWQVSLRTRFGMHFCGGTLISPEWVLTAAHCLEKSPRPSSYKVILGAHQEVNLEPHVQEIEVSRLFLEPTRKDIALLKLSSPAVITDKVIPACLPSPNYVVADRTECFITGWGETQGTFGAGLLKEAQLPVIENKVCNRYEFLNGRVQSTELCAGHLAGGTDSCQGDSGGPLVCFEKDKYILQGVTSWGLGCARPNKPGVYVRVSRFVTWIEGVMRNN
# [29] = test system: Mus musculus; assay: Toxicity in SCID mouse xenografted with human DU145 cells assessed as body weight change at 0.5 mg/kg, sc administered twice daily for 31 days; assay type: organism-based, DU-145; set-up: dose 0.5 mg/kg, route subcutaneous; conditions: in vivo, 744 h
# [30] = test system: DU-145; assay: Antitumor activity against human DU145 cells xenografted in SCID mouse assessed as tumor growth inhibition at 0.5 mg/kg, sc administered twice daily for 31 days; assay type: functional; conditions: DU-145, sc, 744 h, route subcutaneous, read-out: TGI
# [31] = test system: Mus musculus; assay: Toxicity in SCID mouse xenografted with human DU145 cells assessed as clinical signs at 0.5 mg/kg, sc administered twice daily for 31 days; assay type: organism-based, DU-145; set-up: dose 0.5 mg/kg, route subcutaneous; conditions: in vivo, 744 h
Structure (SMILES),Ki [2] [nM],Ki [3] [nM],IC50 [5] [nM],IC50 [9] [nM],remaining at 20 min [10] [%],solubility [11] [µM],remaining at 20 min [13] [%],IC50 [14] [nM],Ki [18] [nM],remaining at 20 min [22] [%],Ki [27] [nM],viability at 10 µM [6] [%],inhibition at 10 µM [7] [%],inhibition at 10 µM [12] [%],viability at 10 µM [15] [%],viability at 10 µM [17] [%],inhibition at 10 µM [19] [%],EC50 [20] [nM],EC50 [21] [nM],EC50 [23] [nM],other results
N=C(N)c1ccc(Oc2cc(NC(=O)C3CCN(C(=O)CCN)CC3)cc(Oc3ccc(C(=N)N)cc3)c2)cc1,541,61,,,,,,,95,,2680,80,60,94,99,98,37,130,580,1580,Ki [28]: 2590 nM
N=C(N)c1ccc(Oc2cc(NC(=O)[C@H]3CC[C@H](N)CC3)cc(Oc3ccc(C(=N)N)cc3)c2)cc1,894,3,> 30000,> 30000,83,200,97,> 30000,503,91,2220,94,63,98,90,100,86,41,105,1540,AUC(0-inf) [1]: 1850 ng·h/mL; Tmax [4]: 0.75 h; Activity [29]: < 5%; half-life [16]: 3.3 h; inhibition in vivo at 0.5 mg/kg [30]: 52%; Cmax [25]: 484 ng/mL; Activity [31]: Non-toxic; IC50 [26]: > 30000 nM
N=C(N)c1ccc(Oc2cc(Oc3ccc(CN)cc3)cc(C(=O)N[C@H]3CC[C@H](N)CC3)c2)cc1,1541,40,,,,,,,,,3130,63,59,49,100,90,54,324,485,1700,

# Continued, in another order:
Ki [2] [nM],Ki [3] [nM],IC50 [5] [nM],IC50 [9] [nM],remaining at 20 min [10] [%],solubility [11] [µM],remaining at 20 min [13] [%],IC50 [14] [nM],Ki [18] [nM],remaining at 20 min [22] [%],Ki [27] [nM],Structure (SMILES),viability at 10 µM [6] [%],inhibition at 10 µM [7] [%],inhibition at 10 µM [12] [%],viability at 10 µM [15] [%],viability at 10 µM [17] [%],inhibition at 10 µM [19] [%],EC50 [20] [nM],EC50 [21] [nM],EC50 [23] [nM],other results
1625,10,> 30000,> 30000,81,194,85,> 30000,516,100,2100,N=C(N)c1ccc(Oc2cc(Oc3ccc(C(=N)N)cc3)cc(C(=O)N[C@H]3CC[C@H](N)CC3)c2)cc1,96,84,81,95,100,97,200,48,1360,AUC(0-inf) [1]: 1000 ng·h/mL; Tmax [4]: 0.27 h; Activity [8]: Non-toxic; half-life [16]: 1.6 h; Activity [24]: < 5%; Cmax [25]: 487 ng/mL; IC50 [26]: > 30000 nM
264,1,> 30000,> 30000,24,182,54,> 30000,44,34,2470,N=C(N)c1ccc(Oc2cc(Oc3ccc(C(=N)N)cc3)cc(C(=O)O[C@H]3CC[C@H](N)CC3)c2)cc1,82,90,89,95,92,95,152,81,135,IC50 [26]: > 30000 nM

# — ChEMBL document CHEMBL3286254, “Structure-guided discovery of 1,3,5 tri-substituted benzenes as potent and selective matriptase inhibitors exhibiting in vivo antitumor efficacy” (Bioorg Med Chem, 2014)
